Data: ChEMBL document CHEMBL5528058 (J Med Chem, 2024)
Calls of active or inactive are those of the source. The rule behind the calls is not given here.

Tests used:
[1] = molecular target: Programmed cell death protein 1/Programmed cell death 1 ligand 1 (Homo sapiens, UniProt Q9NZQ7)
Description: Inhibition of human PD-1/PD-L1 interaction by HTRF analysis

[2] = MRT (0 to infinity) in ICR mouse at 10 mg/kg, IG measured upto 24 hrs by LCMS analysis; format: ADME, organism-based; conditions: in vivo, po
[3] = MRT (0 to t) in ICR mouse at 1 mg/kg, iv measured upto 24 hrs by LCMS analysis; format: ADME, organism-based; conditions: in vivo
[4] = AUC (0 to t) in ICR mouse at 1 mg/kg, iv measured upto 24 hrs by LCMS analysis; format: ADME, organism-based; conditions: in vivo
MDA-MB-231 [5] = assay: Antiproliferative activity against human MDA-MB-231 cells as cell killing incubated for 6 days by CCK-8 assay; conditions: MDA-MB-231, 144 h
[6] = AUC (0 to infinity) in ICR mouse at 10 mg/kg, IG measured upto 24 hrs by LCMS analysis; format: ADME, organism-based; conditions: in vivo, po
[7] = Tmax in ICR mouse at 10 mg/kg, IG measured upto 24 hrs by LCMS analysis; format: ADME, organism-based; conditions: in vivo, po
[8] = Toxicity in BALB/c mouse implanted with mouse 4T1 cells assessed as body weight loss at 5 to 10 mg/kg, IG administered twice a day for 14 days; format: organism-based; conditions: in vivo, po, 336 h, dose 5-10 mg/kg, time 14 day
[9] = Toxicity in BALB/c mouse implanted with mouse 4T1 cells assessed as morphological changes in lung at 5 to 10 mg/kg, IG administered twice a day for 14 days by H and E staining based analysis; format: organism-based; conditions: in vivo, po, 336 h, dose 5-10 mg/kg, time 14 day
[10] = Cmax in ICR mouse at 10 mg/kg, IG measured upto 24 hrs by LCMS analysis; format: ADME, organism-based; conditions: in vivo, po
[11] = Acute toxicity in ICR mouse at 250 to 500 mg/kg, IG measured for 7 days; format: organism-based; conditions: in vivo, po, 168 h, dose 250-500 mg/kg, time 7 day
[12] = Toxicity in BALB/c mouse implanted with mouse 4T1 cells assessed as side effect at 5 to 10 mg/kg, IG administered twice a day for 14 days; format: organism-based; conditions: in vivo, po, 336 h, dose 5-10 mg/kg, time 14 day
[13] = Toxicity in BALB/c mouse implanted with mouse 4T1 cells assessed as morphological changes in tumor at 5 to 10 mg/kg, IG administered twice a day for 14 days by H and E staining based analysis; format: organism-based; conditions: in vivo, po, 336 h, dose 5-10 mg/kg, time 14 day
[14] = Half life in ICR mouse at 10 mg/kg, IG measured upto 24 hrs by LCMS analysis; format: ADME, organism-based; conditions: in vivo, po
4T1 [15] = assay: Antitumor activity against mouse 4T1 cells implanted in BALB/c mouse assessed as tumor growth inhibition at 5 mg/kg, IG administered twice a day for 14 days; conditions: 4T1, po, 336 h, read-out: TGI
[16] = Toxicity in BALB/c mouse implanted with mouse 4T1 cells assessed as morphological changes in liver at 5 to 10 mg/kg, IG administered twice a day for 14 days by H and E staining based analysis; format: organism-based; conditions: in vivo, po, 336 h, dose 5-10 mg/kg, time 14 day
[17] = Toxicity in BALB/c mouse implanted with mouse 4T1 cells assessed as morphological changes in kidney at 5 to 10 mg/kg, IG administered twice a day for 14 days by H and E staining based analysis; format: organism-based; conditions: in vivo, po, 336 h, dose 5-10 mg/kg, time 14 day
[18] = Oral bioavailability in ICR mouse at 1 mg/kg measured upto 24 hrs by LCMS analysis; format: ADME, organism-based; conditions: in vivo
4T1 [19] = assay: Antiproliferative activity against mouse 4T1 cells as cell killing incubated for 6 days by CCK-8 assay; conditions: 4T1, 144 h
4T1 [20] = assay: Antitumor activity against mouse 4T1 cells implanted in BALB/c mouse assessed as tumor growth inhibition at 10 mg/kg, IG administered twice a day for 14 days; conditions: 4T1, po, 336 h, read-out: TGI
[21] = AUC (0 to t) in ICR mouse at 10 mg/kg, IG measured upto 24 hrs by LCMS analysis; format: ADME, organism-based; conditions: in vivo, po
[22] = Clearance in ICR mouse at 1 mg/kg, iv measured upto 24 hrs by LCMS analysis; format: ADME, organism-based; conditions: in vivo
[23] = Toxicity in BALB/c mouse implanted with mouse 4T1 cells assessed as morphological changes in heart at 5 to 10 mg/kg, IG administered twice a day for 14 days by H and E staining based analysis; format: organism-based; conditions: in vivo, po, 336 h, dose 5-10 mg/kg, time 14 day
[24] = Half life in ICR mouse at 1 mg/kg, iv measured upto 24 hrs by LCMS analysis; format: ADME, organism-based; conditions: in vivo
[25] = molecular target: Programmed cell death 1 ligand 1 (Mus musculus, UniProt Q9EP73); assay: Binding affinity to his-tagged mouse PD-L1 expressed in HEK293 cells assessed as dissociation constant by SPR analysis
Programmed cell death 1 ligand 1, sequence (Q9EP73 whole entry): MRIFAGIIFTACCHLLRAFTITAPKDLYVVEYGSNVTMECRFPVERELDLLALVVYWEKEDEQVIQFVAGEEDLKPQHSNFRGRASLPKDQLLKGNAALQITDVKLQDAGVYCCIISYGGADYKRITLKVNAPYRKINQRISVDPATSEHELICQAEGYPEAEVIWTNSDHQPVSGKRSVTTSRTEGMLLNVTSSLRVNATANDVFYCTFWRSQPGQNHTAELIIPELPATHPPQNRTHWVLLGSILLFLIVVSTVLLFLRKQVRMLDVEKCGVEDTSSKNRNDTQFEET

[26] = MRT (0 to t) in ICR mouse at 10 mg/kg, IG measured upto 24 hrs by LCMS analysis; format: ADME, organism-based; conditions: in vivo, po
MDA-MB-231 [27] = assay: Induction of cell death in human MDA-MB-231 cells incubated for 6 days by CCK-8 assay; format: functional, cell-based; conditions: time 6.0 day
Jurkat = assay: Antiproliferative activity against human Jurkat cells as cell killing incubated for 6 days by CCK-8 assay; conditions: 144 h
MDA-MB-231 [28] = assay: Antitumor immunity activity against human MDA-MB-231 cells co-cultured with human PBMC assessed as cell killing incubated for 12 hrs; format: functional, cell-based
[29] = MRT (0 to infinity) in ICR mouse at 1 mg/kg, iv measured upto 24 hrs by LCMS analysis; format: ADME, organism-based; conditions: in vivo
4T1 [30] = assay: Antitumor activity against mouse 4T1 cells implanted in BALB/c mouse assessed as reduction in ki-67 expression at 10 mg/kg, IG administered twice a day for 14 days by immunohistochemistry analysis; format: functional, organism-based; conditions: time 14.0 day
[31] = Toxicity in BALB/c mouse implanted with mouse 4T1 cells assessed as morphological changes in spleen at 5 to 10 mg/kg, IG administered twice a day for 14 days by H and E staining based analysis; format: organism-based; conditions: in vivo, po, 336 h, dose 5-10 mg/kg, time 14 day
PBMC = assay: Induction of cell death in human PBMC cells incubated for 6 days by CCK-8 assay; format: functional, cell-based; conditions: time 6.0 day
[32] = AUC (0 to infinity) in ICR mouse at 1 mg/kg, iv measured upto 24 hrs by LCMS analysis; format: ADME, organism-based; conditions: in vivo
[33] = molecular target: Programmed cell death protein 1 (Homo sapiens, UniProt Q15116); assay: Inhibition of human recombinant PD-1 by HTRF analysis
Programmed cell death protein 1, sequence (Q15116 whole entry): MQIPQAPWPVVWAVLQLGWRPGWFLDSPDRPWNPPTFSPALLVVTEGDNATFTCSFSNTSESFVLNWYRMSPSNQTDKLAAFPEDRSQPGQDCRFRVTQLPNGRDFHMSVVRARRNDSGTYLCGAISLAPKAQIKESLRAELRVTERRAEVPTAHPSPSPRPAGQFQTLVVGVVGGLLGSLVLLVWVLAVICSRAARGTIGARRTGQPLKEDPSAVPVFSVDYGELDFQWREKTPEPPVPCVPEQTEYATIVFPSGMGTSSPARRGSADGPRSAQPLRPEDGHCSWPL

4T1 [34] = assay: Antitumor activity against mouse 4T1 cells implanted in BALB/c mouse assessed as increase in percentage of CD3+ CD4+ cells in spleen at 15 mg/kg, ip qd administered for 14 days by flow cytometry analysis (reference value: 6.72%); format: functional; conditions: time 14 day
4T1 [35] = assay: Antitumor activity against mouse 4T1 cells implanted in BALB/c mouse assessed as increase in percentage of CD3+ CD4+ cells in tumor at 15 mg/kg, ip qd administered for 14 days by flow cytometry analysis (reference value: 0.32%); format: functional; conditions: time 14 day
4T1 [36] = assay: Antitumor activity against mouse 4T1 cells implanted in BALB/c mouse assessed as increase in percentage of CD3+ CD8+ cells in spleen at 15 mg/kg, ip qd administered for 14 days by flow cytometry analysis (reference value: 3.34%); format: functional; conditions: time 14 day
4T1 [37] = assay: Antitumor activity against mouse 4T1 cells implanted in BALB/c mouse assessed as increase in percentage of CD3+ CD8+ cells in tumor at 15 mg/kg, ip qd administered for 14 days by flow cytometry analysis (reference value: 0.64%); format: functional; conditions: time 14 day

Programmed cell death protein 1/Programmed cell death 1 ligand 1, sequence (Q15116 whole entry): as above
Programmed cell death protein 1/Programmed cell death 1 ligand 1, sequence (Q9NZQ7 whole entry): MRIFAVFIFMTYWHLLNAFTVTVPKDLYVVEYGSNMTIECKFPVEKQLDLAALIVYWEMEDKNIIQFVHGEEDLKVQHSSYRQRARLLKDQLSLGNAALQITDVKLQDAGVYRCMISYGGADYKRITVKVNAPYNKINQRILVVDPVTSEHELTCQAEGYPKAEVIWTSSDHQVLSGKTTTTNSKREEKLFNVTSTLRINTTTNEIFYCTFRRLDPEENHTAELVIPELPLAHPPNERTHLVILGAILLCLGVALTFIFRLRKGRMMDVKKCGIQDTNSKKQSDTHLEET

## NC(=O)CN1CCc2nc(OCc3cccc(-c4ccccc4F)c3Cl)ccc2C1
[1]
  IC50: 157 nM

## Cc1c(COc2ccc3c(n2)CCN(CCO)C3)cccc1-c1ccccc1
[1]
  IC50: 227 nM

## O=C(Nc1cccc(-c2cccc(Cl)c2F)c1Cl)c1ccc2c(n1)CCN(CCO)C2
[1]
  IC50: 24.2 nM

## O=C(Nc1cccc(-c2cccc(F)c2F)c1Cl)c1ccc2c(n1)CCN(CCO)C2
[1]
  IC50: 20.1 nM

## CC(C(=O)O)N1CCc2nc(OCc3cccc(-c4ccccc4F)c3Cl)ccc2C1 (centres undefined)
[1]
  IC50: 31.3 nM

## OCCN1CCc2nc(OCc3cccc(-c4ccccc4Cl)c3F)ccc2C1
[1]
  IC50: 101 nM

## CCOC(=O)CN1CCc2nc(C(=O)Nc3cccc(-c4cccc(C#N)c4F)c3Cl)ccc2C1
[1]
  IC50: > 1000 nM

## CC(C)Oc1cccc(-c2cccc(NC(=O)c3ccc4c(n3)CCN(CCO)C4)c2Cl)c1F
[1]
  IC50: 83.5 nM

## Cc1c(COc2ccc3c(n2)CCN(CCO)C3)cccc1-c1ccccc1Cl
[1]
  IC50: 216 nM

## CC(C)OC(=O)CN1CCc2nc(OCc3cccc(-c4ccccc4F)c3Cl)ccc2C1
[1]
  IC50: 436 nM

## CCOC(=O)C(C)N1CCc2nc(OCc3cccc(-c4ccccc4F)c3Cl)ccc2C1 (centres undefined)
[1]
  IC50: 592 nM

## O=C(O)CN1CCc2nc(OCc3cccc(-c4ccccc4F)c3Cl)ccc2C1
[2]
  MRT inf: 7.35 h
[3]
  MRT last at 24 h: 3.7 h
[4]
  AUC(0-t) at 24 h: 1800 ng·h/mL
MDA-MB-231 [5]
  IC50: 15400 nM
[6]
  AUC(0-inf): 10500 ng·h/mL
[7]
  Tmax: 0.25 h
[8]
  Activity: Non-Toxic
[9]
  Activity: Non-Toxic
[10]
  Cmax: 1950 ng/mL
[11]
  Activity: Non-Toxic
[12]
  Activity: Non-Toxic
[13]
  Activity: Toxic
[14]
  half-life: 4.95 h
4T1 [15]
  inhibition in vivo at 5 mg/kg: 49%
[16]
  Activity: Non-Toxic
[17]
  Activity: Non-Toxic
[18]
  bioavailability: 58%
4T1 [19]
  IC50: 77500 nM
4T1 [20]
  inhibition in vivo at 10 mg/kg: 66%
[21]
  AUC(0-t) at 24 h: 10200 ng·h/mL
[22]
  clearance: 9.55 mL/min/kg
[23]
  Activity: Non-Toxic
[24]
  half-life: 3.51 h
[25]
  Kd: 392000 nM
[26]
  MRT last at 24 h: 6.05 h
MDA-MB-231 [27]
  Activity: Active
Jurkat
  IC50: 53900 nM
MDA-MB-231 [28]
  Activity: Active
[29]
  MRT inf: 3.86 h
4T1 [30]
  Activity: Active
[31]
  Activity: Non-Toxic
PBMC
  Activity: Active
[32]
  AUC(0-inf): 1820 ng·h/mL

## CCOC(=O)CN1CCc2nc(C(=O)Nc3cccc(-c4cccc(Cl)c4F)c3Cl)ccc2C1
[1]
  IC50: > 1000 nM

## CCOC(=O)CCN1CCc2nc(OCc3cccc(-c4ccccc4F)c3Cl)ccc2C1
[1]
  IC50: 241 nM

## O=C(Nc1cccc(-c2ccccc2F)c1Cl)c1ccc2c(n1)CCN(CCO)C2
[1]
  IC50: 21.6 nM

## N#Cc1cccc(-c2cccc(NC(=O)c3ccc4c(n3)CCN(CCO)C4)c2Cl)c1F
[1]
  IC50: 58.8 nM

## COC(=O)CN1CCc2nc(OCc3cccc(-c4ccccc4F)c3Cl)ccc2C1
[1]
  IC50: 369 nM

## OCCN1CCc2nc(OCc3cccc(-c4ccccc4Cl)c3Cl)ccc2C1
[1]
  IC50: 95.1 nM

## Cc1ccccc1-c1cccc(COc2ccc3c(n2)CCN(CCO)C3)c1C
[1]
  IC50: 406 nM

## CCOC(=O)CN1CCc2nc(C(=O)Nc3cccc(-c4cccc(OC(C)C)c4F)c3Cl)ccc2C1
[1]
  IC50: > 1000 nM

## OCCN1CCc2nc(OCc3cccc(-c4ccccc4F)c3Cl)ccc2C1
[1]
  IC50: 19.8 nM

## Cc1c(Nc2nccc3cc(CN4CC[C@@H](O)C4)cnc23)cccc1-c1cccc(-c2nc3ccc(CN4CC[C@@H](C(=O)O)C4)c(C#N)c3o2)c1C
[33]
  IC50: 3.1 nM

## CCOC(=O)CN1CCc2nc(C(=O)Nc3cccc(-c4cccc(F)c4F)c3Cl)ccc2C1
[1]
  IC50: 33800 nM

## COc1nc(OCc2cccc(-c3ccccc3)c2C)ccc1CNCCNC(C)=O
4T1 [34]
  Activity: 5.4%
MDA-MB-231 [5]
  IC50: 19300 nM
4T1 [19]
  IC50: 5200 nM
4T1 [35]
  Activity: 0.58%
Jurkat
  IC50: 4330 nM
4T1 [36]
  Activity: 2.52%
4T1 [37]
  Activity: 1.24%

## OCCN1CCc2nc(OCc3cccc(-c4ccccc4F)c3F)ccc2C1
[1]
  IC50: 105 nM

## Cc1c(COc2ccc3c(n2)CCN(CCO)C3)cccc1-c1ccccc1F
[1]
  IC50: 170 nM
